Data on two compounds can be found in ChEMBL document CHEMBL5154774, “Discovery of Novel Celastrol-Imidazole Derivatives with Anticancer Activity In Vitro and In Vivo” (J Med Chem, 2022).

The target of series [1] is Heat shock protein HSP90 (Homo sapiens) (UniProt P07900+P08238). Description: Binding affinity to Hsp90 (unknown origin) at 80 uM by UV-Vis spectrophotometric analysis. It is filed as protein assay.
The subject of the next series is HCT-116. The series can be described thus: Antiproliferative activity against human HCT-116 cells assessed as inhibition of cell growth incubated for 48 hrs by MTT assay. The following applies: HCT-116, 48 h. The series is classed as functional, cell-based.
Series [2] addresses T1, Hsp90 co-chaperone Cdc37 (Homo sapiens) (UniProt Q16543).
T1 sequence (whole entry): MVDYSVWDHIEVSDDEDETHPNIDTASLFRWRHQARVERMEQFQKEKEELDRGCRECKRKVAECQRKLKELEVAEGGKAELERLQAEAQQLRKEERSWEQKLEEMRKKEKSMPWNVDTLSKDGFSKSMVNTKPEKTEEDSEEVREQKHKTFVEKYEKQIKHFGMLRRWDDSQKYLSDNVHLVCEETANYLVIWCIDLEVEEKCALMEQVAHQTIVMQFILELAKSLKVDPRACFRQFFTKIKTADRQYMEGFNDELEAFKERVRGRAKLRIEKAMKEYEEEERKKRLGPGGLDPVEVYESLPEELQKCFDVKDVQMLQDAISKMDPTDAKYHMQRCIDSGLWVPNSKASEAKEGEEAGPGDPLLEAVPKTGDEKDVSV
The series can be described thus: Binding affinity to Cdc37 (unknown origin) at 80 uM by UV-Vis spectrophotometric analysis.

Series [3] concerns A549. The series can be described thus: Induction of cell cycle arrest in human A549 cells assessed as accumulation of cells at G0/G1 phase measured after 24 hrs by PI staining based flow cytometry analysis. The series is classed as functional. The note with it: dose 0.1-0.4 µM, DDE = dose-dependent effect. (Flow cytometry measures light scatter and fluorescence of single cells or particles in a stream.)

The subject of series [4] is A549. The series can be described thus: Induction of apoptosis in human A549 cells assessed as total apoptotic cells at 0.4 uM incubated for 48 hrs Annexin V-FITC/propidium iodide staining based flow cytometry relative to control. It is filed as functional.
Series [5] deals with A549. The series can be described thus: Antiproliferative activity against human A549 cells expressing Hsp90 protein assessed as inhibition of cell growth incubated for 48 hrs by MTT assay. It is filed as functional, cell-based. The note with it: A549, 48 h. (In general: Formazan colour is commonly taken as a measure of viable cells.)
Series [6] concerns A549. Description: Antiproliferative activity against human A549 cells expressing Cdc37 protein assessed as inhibition of cell growth incubated for 48 hrs by MTT assay. It is filed as functional, cell-based. The note with it: A549, 48 h.
Series [7] has as its system A549. Description: Induction of apoptosis in human A549 cells assessed as downregulation of p-Akt level incubated for 12 hrs by Western blot analysis. It is filed as functional, cell-based. The following applies: dose 1.25-5 µM, DDE = dose-dependent effect. (In general: A western blot detects proteins with antibodies after separation by electrophoresis.)
Series [8] has as its system A549. Description: Upregulation of cleaved PARP expression in human A549 cells at 1.25 to 5 uM incubated for 12 hrs by Western blot analysis. The series is classed as functional, cell-based. The note with it: dose 1.25-5 µM.
Series [9] is described as follows: Toxicity in BALB/c mouse xenografted with human A549 cells assessed as reduction in body weight at 0.5 to 1 mg/kg, ip measured for 21 days. The series is classed as organism-based. The following applies: in vivo, 504 h, dose 0.5-1 mg/kg, time 21 day.
Series [10] deals with A549. The series can be described thus: Antitumor activity against human A549 cells xenografted in BALB/c mouse lung tumor model assessed as tumor weight at 1 mg/kg, ip measured every day for 21 days by caliper method. The series is classed as functional. The following applies: time 21 day.
Series [11] relates to A549. The series can be described thus: Antiproliferative activity against human A549 cells assessed as inhibition of cell growth incubated for 48 hrs by MTT assay. The series is classed as functional, cell-based. The following applies: A549, 48 h.
Series [12] deals with A549. Description: […] of Bcl-2 protein expression in human A549 cells at 1.25 to 5 uM incubated for 12 hrs by Western blot analysis. The series is classed as functional, cell-based. The note with it: dose 1.25-5 µM.
The nature of series [13]: Thiol reactivity of the compound with DTT by 1H-NMR analysis. It is filed as physicochemical.
For series [14], the system named is A549. Description: Inhibition of Hsp90-Cdc37 complex in human A549 cells assessed as decrease in Hsp90-Cdc37 protein level at 10 uM incubated for 6 hrs by co-immunoprecipitation assay relative to CEL. It is filed as cell-based.
In series [15] the test system is A549. Description: Upregulation of Bax protein expression in human A549 cells at 1.25 to 5 uM incubated for 12 hrs by Western blot analysis. The note with it: dose 1.25-5 µM. The series is classed as functional, cell-based.
The test system of series [16] is A549. Description: Antitumor activity against human A549 cells xenografted in BALB/c mouse lung tumor model assessed as tumor inhibition rate at 0.5 mg/kg, ip measured every day for 21 days by caliper method relative to control. It is filed as functional. The following applies: A549, 504 h, time 21 day.
Series [17] can be described thus: Stability of the compound in PBS/MeOH buffer by HPLC analysis. It is filed as physicochemical.
In series [18] the test system is A549. Description: Induction of apoptosis in human A549 cells assessed as total apoptotic cells at 0.8 uM incubated for 48 hrs Annexin V-FITC/propidium iodide staining based flow cytometry relative to control. The series is classed as functional.
In series [19] the test system is A549. The series can be described thus: Upregulation of cleaved capase-3 expression in human A549 cells at 1.25 to 5 uM incubated for 12 hrs by Western blot analysis. The series is classed as functional, cell-based. The following applies: dose 1.25-5 µM.
The subject of series [20] is A549. The series can be described thus: Antitumor activity against human A549 cells xenografted in BALB/c mouse lung tumor model assessed as tumor inhibition rate at 1 mg/kg, ip measured every day for 21 days by caliper method relative to control. It is filed as functional. The following applies: A549, 504 h, time 21 day.
The subject of series [21] is A549. Description: Induction of apoptosis in human A549 cells assessed as downregulation of Cdk4 level incubated for 12 hrs by Western blot analysis. It is filed as functional, cell-based. The note with it: dose 1.25-5 µM, DDE = dose-dependent effect.
Series [22] has as its system A549. The series can be described thus: Induction of apoptosis in human A549 cells assessed as total apoptotic cells at 0.2 uM incubated for 48 hrs Annexin V-FITC/propidium iodide staining based flow cytometry relative to control. The series is classed as functional.
Series [23] concerns A549. The series can be described thus: Induction of apoptosis in human A549 cells at 0.1 to 0.4 uM incubated for 48 hrs by Hoechst33342 staining based fluorescence microscopic analysis. The series is classed as functional, cell-based. The note with it: dose 0.1-0.4 µM.
For the next series, the system named is MDA-MB-231. The series can be described thus: Antiproliferative activity against human MDA-MB-231 cells assessed as inhibition of cell growth incubated for 48 hrs by MTT assay. The series is classed as functional, cell-based. The note with it: MDA-MB-231, 48 h.
Series [24] concerns A549. The series can be described thus: Antiproliferative activity against human A549 cells expressing Hsp90-Cdc37 protein assessed as inhibition of cell growth incubated for 48 hrs by MTT assay. It is filed as functional, cell-based. The note with it: A549, 48 h.
The subject of a further series is U2OS. Description: Antiproliferative activity against human U2OS cells assessed as inhibition of cell growth incubated for 48 hrs by MTT assay. The series is classed as functional, cell-based.

Structures are written as SMILES. Calls of active or inactive are those of the source. The calls are words filed in the database; no cut-off is given here.

One may read the IC50 as the concentration that gives 50% inhibition. Usually inhibition stands for how much of the control response was suppressed. A word on the inhibition in vivo: it is the percentage by which the read-out fell short of the control. With `CC1=C(O)C(=O)C=C2C1=CC=C1[C@@]2(C)CC[C@@]2(C)[C@@H]3C[C@](C)(C(=O)OCCCn4cc([N+](=O)[O-])nc4Cl)CC[C@]3(C)CC[C@]12C`, the result (in series [1]; in series [2]; with A549 [8]; in the series on A549 [12]; with A549 [15]; in the series on A549 [19]) was Active. Moreover, the result in the series with A549 [23] was Active. Also, the IC50 in the series with HCT-116 is 0.59 µM; with A549 [5], above 100 µM; with A549 [6] it was above 100 µM; in the series with A549 [11] it was 0.54 µM; in the series with MDA-MB-231, 0.57 µM; with A549 [24], above 100 µM. Also, the IC50 in the series on U2OS is 0.57 µM. For the same compound, the Activity result in the series on A549 [3] is “Dde”; in the series on A549 [4], 11.7%; in the series on A549 [7], “Dde”; in [9], “Non-Toxic”; in the series with A549 [10] it was 0.46 g; in series [13], “Active”. The Activity with A549 [18] is 29.9%; with A549 [21] it was “Dde”; in the series with A549 [22] it was 9%. The inhibition in the series on A549 [14] came out at 33.3%. Further, in the series on A549 [16], the inhibition in vivo at 0.5 mg/kg turned out to be 54.1%. For the same compound, the Stability entry in series [17] is “Stable”. In addition, the inhibition in vivo at 1 mg/kg with A549 [20] is 68.3%.

As to `CC1=C(O)C(=O)C=C2C1=CC=C1[C@@]2(C)CC[C@@]2(C)[C@@H]3C[C@](C)(C(=O)O)CC[C@]3(C)CC[C@]12C` [CELASTROL], the IC50 in the series with HCT-116 was 1.81 µM; in the series on A549 [5], above 100 µM; in the series with A549 [6] it was above 100 µM; in the series with A549 [11] it was 1.68 µM; in the series with MDA-MB-231 it was 1.98 µM; in the series with A549 [24], above 100 µM. For the same compound, in the series on U2OS, the IC50 came to 1.86 µM. Moreover, the Activity in the series with A549 [10] is 0.67 g. Further, in the series with A549 [20], the inhibition in vivo at 1 mg/kg stood at 52.7%.
